Experimental data: patent US20080102039A1, “Betamethasone spray” (priority 2006, published 2008)

Tests used:
[1] = Preparation of Formulation 1: dissolution of BMV in dimethyl isosorbide and visual check for precipitation; type: physicochemical; details: Formulation 1 preparation
Experimental: • 1) Into vessel 1 was added the dimethyl isosorbide to which was slowly sprinkled the BMV. This was left mixing until visually dissolved. • 2) To vessel 1 was added the propylene glycol with stirring until homogenous. • 3) In vessel 2 was added the required amount of water and polysorbate 80. This was stirred until dissolved and homogenous. • 4) The 3Na.citrate.2H2O, anhyd. citric acid, imidazolidinyl urea and SDS were then added to vessel 2 and stirred until completely dissolved. • 5) The contents of vessel 2 were then poured into vessel 1 and stirred until homogenous.
A 1.1 kg batch of the 0.12% w/w Betamethasone valerate foam formulation above was then made up for a 3-month accelerated stability study using the same method: (Table 2)

[2] = Microscope examination of drops for crystals (Leica DM LB, drop taken every 5 mins); type: physicochemical
Experimental: The DMI phase was made up for a total solution volume of 500 g so 0.600 g (actual weight) of betamethasone valerate was dissolved in 25.009 g of Arlasolve DMI. The rate of addition was 0.600 g added over 30 secs that is at a rate of 0.02 g/sec. The solution was then mixed at speed setting 1 on the Bibby magnetic stirrer. 1 drop of the solution was then taken every 5 mins. and examined under the Leica DM LB microscope with a 5× lens and L plan 10× eyepiece. A 100×1 mm^2 graticule was placed over the sample. The temperatures before and after addition of DMI were also recorded.
Whilst stirring the BMV/DMI solution at speed 1 on the Bibby magnetic stirrer, the propylene glycol (50.008 g) was poured in over approx. 12 secs, at a rate of 4.17 g/sec. 1 drop of the solution was then taken every 5 mins. and examined under a Leica DM LB microscope with a 5× lens and L plan 10× eyepiece. […] The temperatures before and after addition of propylene glycol were also recorded.
15.120 g of the active phase was added to 84.880 g of the aqueous phase over 10 secs (Total vol.=100.000 g), at a rate of 1.51 g/sec. […] The temperatures before and after addition of the active phase were also recorded. […]
84.882 g of the aqueous phase were added to 15.129 g of the active phase over 10 secs (Total vol.=100.011 g). […] The temperatures before and after addition of the aqueous phase were also recorded. […]

[3] = cited from earlier work

- dissolution of BMV into dimethyl isosorbide [1]: successfully dissolved
- time to fully dissolve into the dimethyl isosorbide ([2]; 0.600 g in 25.009 g Arlasolve DMI, stirrer speed 1): at least 30 minutes
- effect of addition of propylene glycol on precipitating the betamethasone valerate ([2]; propylene glycol 50.008 g poured into BMV/DMI solution): no effect
Compound: CCCCC(=O)O[C@]1(C(=O)CO)[C@@H](C)C[C@H]2[C@@H]3CCC4=CC(=O)C=C[C@]4(C)[C@@]3(F)[C@@H](O)C[C@@]21C [Betamethasone valerate]
- solubility in water [3]: practically insoluble
